“Also recorded” adds a separate entry of the source.
Experiments:
[1] = system: trophozoite cultures of P. falciparum; assay: Neutralization of drug induced inhibition by addition of iron(III); type: cell-based, Plasmodium falciparum; conditions: stoichiometric addition of iron(III) salt / applied as iron(III)-complexes
Method: i. Neutralization of drug induced inhibition by addition of iron (III). Preformed ferric iron-carrier complexes were prepared by addition of increasing amounts of FeCl3 (in methanol) to a DMSO solution containing the indicated concentration of chelator. The mixtures were incubated for 1 hour at room temperature and added to microculture wells at the trophozoite stage at final concentrations of 30 μg/ml (for desferrioxamine) and 5 μg/ml (for reversed siderophores).
In order to assess this point, it was examined whether the reversed siderophores cause growth inhibition by virtue of iron deprivation (extraction at the level of the infected cell), as compared to formation of toxic iron complexes, the effect of chelator on trophozoite cultures was examined in the presence of increasing amounts of ferric salt. […] The concentration of drug used was the IC50 value depicted in Table 1. […] The complexes were evidently non-toxic to parasites, thus ruling out chelated iron-mediated lipid peroxidation as the modus of operandii of the drugs, a mechanism of antimalarial activity that has been proposed for other iron chelators. […]

[2] = system: human Hep2 hepatoma cells; assay: Iron extraction from hepatoma cells (NBD-DFO fluorescence); type: cell-based; conditions: cells pre-exposed to chelator (80 μg/ml, 18 hour)
[3] = system: normal and infected red cells; assay: Distribution of 59Fe counts after uptake (80,000g lysate fractionation); type: cell-based, human; conditions: 59Fe complex, lysates 80,000g×20 min
Method: k. Uptake of radioactive carrier-Fe complexes. DFO and the different SF derivatives were pre-complexed with iron by addition of concentrated stock solutions of 20 mg/ml carriers to ^59 FeCl3 (Amersham, England) in 0.5 ml of 150 mM NaCl, 10 mM Hepes at 3-5 molar excess of carrier for 1 hour at room temperature. To begin the flux, normal or parasitized red cells that had been washed 3 times in saline buffer and resuspended in the same buffer supplemented with 5% bovine serum albumin (BSA), 2.5 mM citrate, 2 mg/ml glucose were added to radioactive ^59 Fe-complexes at a final suspension of 20% hematocrit. After incubation at 37° C., 75 μl suspension was removed in duplicate aliquots for each time point, placed in plastic 15 ml test tube (Starstedt) and centrifuged 1 minute at 2,500 g. The supernatant was removed and the pellet immediately placed on ice. After all sampling was completed the pellets were washed twice in 15 ml of ice cold buffer containing 50 mM EDTA and lysed in distilled water. Radioactivity (Gamma emission, 700-1300 Kev) was counted and the cell number for each sample determined from hemoglobin absorption of the lysate at 410 nm.
Due to the fact that RSF's have markedly greater lipophilicity than DFO, they were expected to faster penetrate and therefore more effectively chelate intracellular iron after short exposure times. […]

plasma = assay: Pre-incubation of plasma with chelator, effect on parasite growth; type: cell-based, human; conditions: 40 fold IC50, then dialysis
Method: h. The effect of pre-incubation of red cells or plasma with drug on parasite growth. Red cell suspensions (5% hematocrit) in RPMI 1640 medium pH 7.4 (no plasma) were treated for 24-48 hrs with either 100 μg/ml of chelator or DMSO alone (<1% final concentration) in culture conditions. Chelator was removed by washing the cells 4 times with RPMI followed by 1 hour incubation at 37° C. Parasite growth was assayed after addition of gelatin enriched schizonts (>90%) as described above. […] The plasma was subsequently dialyzed for 24 hours against 800 ml 0.1% bovine serum albumin (BSA), and 10 mM glucose in phosphate buffered saline (PBS) pH 7.4, followed by an additional 24 hour dialysis against 400 ml of the same buffer and supplemented to the medium for parasite growth assays.
(§1) Plasma and uninfected red cells were separately treated with relatively high concentrations of chelators (100 μg/ml) in order to evaluate whether the site of action of the lipophilic chelators was associated with components of the plasma and/or the uninfected red cell.

uninfected red cells = assay: Pre-incubation of uninfected red cells with chelator, effect on parasite growth; type: cell-based, human
Method: h. The effect of pre-incubation of red cells or plasma with drug on parasite growth. Red cell suspensions (5% hematocrit) in RPMI 1640 medium pH 7.4 (no plasma) were treated for 24-48 hrs with either 100 μg/ml of chelator or DMSO alone (<1% final concentration) in culture conditions. Chelator was removed by washing the cells 4 times with RPMI followed by 1 hour incubation at 37° C. Parasite growth was assayed after addition of gelatin enriched schizonts (>90%) as described above. Human plasma (2 ml) from O+ donors was adjusted to either pH 5 with MES (to enhance chelating efficiency) or pH 7.4 (with TRIS base), and treated for 18 hrs with 100 μg/ml chelators or with DMSO. The plasma was subsequently dialyzed for 24 hours against 800 ml 0.1% bovine serum albumin (BSA), and 10 mM glucose in phosphate buffered saline (PBS) pH 7.4, followed by an additional 24 hour dialysis against 400 ml of the same buffer and supplemented to the medium for parasite growth assays.
as §1

[4] = system: mammalian cells in culture; assay: Growth/toxicity in mammalian cells in culture, general statement; type: cell-based
Method: The possibility that the reversed siderophores might affect mammalian cells in culture was assessed in conditions identical to those used for parasites in cultures. […] Nucleic acid synthesis was measured in cultures of mouse NIH 3T3 fibroblasts and human HT29 colonic carcinoma cells in the presence of either SF1-ileu (open circles), desferrioxamine (DFO) (solid triangle) in DMSO or DMSO alone (Control) (<1% final) (open triangles) at same concentrations. Cultures at confluence were exposed to chelators for 24 hours; the first 3 hours without radiolabel and 21 hours with 6 μCi/ml of [^3 H]-hypoxanthine. Extracellular hypoxanthine was removed by several washes with PBS and the cells were treated with 5% TCA for 15 minutes at 5° C. and solubilized with hot 2.5% SDS. Samples were taken for counting of radioactivity and measurement of protein (BCA, Pierce). Data are given as dpm/μg protein and SD (duplicate samples).

ferritin = assay: Effect on iron in ferritin; design: species or system horse; conditions: after the same time of exposure
Method: Experimental testing of iron(III)-chelation properties RSF's were performed on human red blood cell lysates (normal and malaria parasitized), intact cells (4 hrs incubation times at 37° C.), free horse spleen ferritin (4-10 hrs at 37° C.) and ferritin-containing HEP-2 (human hepatoma) cells (4-10 hrs at 37° C.) using RSF1-ileu.

For `CC(=O)N(O)CCCCCNC(=O)CCC(=O)N(O)CCCCCNC(=O)CCC(=O)N(O)CCCCCN` [DFO, desferrioxamine B, reference compound], the “Effect of iron(III) on antimalarial activity” value [1] was “fully averted their antimalarial activity”.
In the case of `CC[C@H](C)[C@H](NC(=O)CCOCC(CC)(COCCC(=O)N[C@H](C(=O)N(C)O)[C@@H](C)CC)COCCC(=O)N[C@H](C(=O)N(C)O)[C@@H](C)CC)C(=O)N(C)O` [SF1-ileu], the Chelatable cytosolic iron [2] was “demonstrably reduced”, the “Total counts found in the cytosol fraction” value [3] was “More than 90%” and the “Ability of plasma to support parasite growth after pre-treatment” value (plasma) was “no significant effect”. The “Ability of red cells to support parasite growth after pre-treatment” value (uninfected red cells; 24 hour exposure, 40 fold IC50, then washing) was “no significant effect”, the “Effect on ability of uninfected cells to support parasite growth” value (uninfected red cells; general statement) was “does not affect irreversibly the ability of uninfected cells to support parasite growth” and the “Growth of / toxicity to mammalian cells in culture” value [4] was “does not affect the growth of various types of mammalian cells in culture; also recorded: not toxic to mammalian cells in culture”. The “Effect on iron in ferritin” value (ferritin) was “not substantially affecting iron in ferritin”.

Reference: patent US5430058A, “Pharmaceutical compositions comprising hydroxamate derivatives for iron removal” (Yeda Research and Development Co. Ltd., priority 1993, dated 1995)
